These results are taken from PubChem BioAssay AID1552 (Sanford-Burnham Center for Chemical Genomics, 2009).

A word on the Kd: it is a measure of binding affinity in units of concentration.

Activity calls are given as the source filed them. The rule behind the calls is not given here. Residues, ends and D or L forms follow the SMILES beside them.

In the assay the target is Ubiquitin-conjugating enzyme E2 N (Homo sapiens) (UniProt P61088). The assay is described as follows: NMR detection of UBE2N ligand binding – biophysical, purified protein (AID 1552). The note with it: NMR binding to purified UBE2N.
Ubiquitin-conjugating enzyme E2 N (Homo sapiens), sequence (P61088 whole entry, looked up): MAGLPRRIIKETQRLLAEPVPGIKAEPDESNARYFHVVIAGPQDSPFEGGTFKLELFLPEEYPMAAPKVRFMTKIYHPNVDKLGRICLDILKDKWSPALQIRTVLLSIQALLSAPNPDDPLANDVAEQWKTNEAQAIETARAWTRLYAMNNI
Turning to `CC(=O)Nc1ccc2c(C)cc(=O)[nH]c2c1`, the Kd is > 4 mM (inactive).

Consider `O=CN1CCN(C(=O)c2ccc(F)cc2)CC1`, for which the Kd was > 4 mM (inactive).

With `C[C@]12C=CC(=O)C=C1CCC1C2CC[C@]2(C)C(=O)CCC12` (stereo not given in full), the Kd is > 4 mM (inactive).

As for `CSc1nc(-c2ccco2)nn1S(C)(=O)=O`, the Kd is > 4 mM (inactive).

Consider `Nc1cccc(C(=O)Nc2ccc(N)cc2Cl)c1`, for which the Kd is > 4 mM (inactive).

With `c1ccc(-c2csc3ncn4nnnc4c23)cc1`, the Kd is > 4 mM (inactive).

In the case of `CC1CCC2(OC1)OC1CC3C4CC[C@H]5C[C@@H](O)CC[C@]5(C)C4CC(=O)[C@]3(C)C1C2C` (stereo not given in full), the Kd was > 4 mM (inactive).

Consider `CC1(C)Oc2ccc3ccc(=O)oc3c2CC1O` (stereo not given), for which the Kd is > 4 mM (inactive).

With `COC(=O)c1cc(-c2c(C)nn(-c3ccccc3)c2C)n[nH]1`, the Kd was > 4 mM (inactive).

`NCc1csc(-c2ccccc2)n1`: the Kd was > 4 mM (inactive).

In the case of `COc1cc([C@@H]2c3cc4c(cc3C(OC3O[C@@H]5COC(C)O[C@H]5[C@H](O)[C@H]3O)C3COC(=O)[C@@H]32)OCO4)cc(OC)c1O` (stereo not given in full), the Kd is > 4 mM (inactive).

Turning to `CN(C)c1n[nH]c(=O)[nH]c1=O`, the Kd is > 4 mM (inactive).

`CN1C2CC3C[C@H]1C(O3)C2O` (stereo not given in full): the Kd is > 4 mM (inactive).

Take `O=C(NC(=S)NN1CCOCC1)c1cccs1`: the Kd was > 4 mM (inactive).

In the case of `CNS(=O)(=O)c1cc(OC)ccc1OC`, the Kd was > 4 mM (inactive).

Turning to `CNC(=O)C(=O)Nc1cccc(Cl)c1`, the Kd was > 4 mM (inactive).

Regarding `COc1nc(C)ccc1-c1noc(-c2ccco2)n1`, the Kd is > 4 mM (inactive).

For the compound `Nc1ccc(CN2CCOCC2)cc1`, the Kd is > 4 mM (inactive).

Consider `Cc1cccc(NS(=O)(=O)c2cccs2)n1`, for which the Kd was > 4 mM (inactive).

As for `CC(CCC(=O)O)[C@H]1CCC2C3C(C[C@H](O)[C@@]21C)[C@@]1(C)CC[C@@H](O)C[C@H]1C[C@H]3O` (stereo not given in full), the Kd was > 4 mM (inactive).

Regarding `CN1CCN(C(=S)NC(=O)c2ccn(C)n2)CC1`, the Kd was > 4 mM (inactive).

Turning to `CC1(C)O[C@H]2[C@H](O)C[C@](O)(C(N)=O)C[C@H]2O1`, the Kd is > 4 mM (inactive).

Turning to `Nc1csc(C(=O)O)c1`, the Kd is > 4 mM (inactive).

On to `O=C1CC(C(=O)O)c2ccccc21` (stereo not given), for which the Kd was > 4 mM (inactive).

For `S=C(NC1=NCCS1)Nc1ccccc1`, the Kd was > 4 mM (inactive).

Regarding `O=C1C2C3C=CC(C3)C2C(=O)N1c1ccccn1` (stereo not given), the Kd is > 4 mM (inactive).

As for `CC(=O)n1c(N)nc2ccccc21`, the Kd was > 4 mM (inactive).

As to `O=c1[nH]c2ccccc2c(=O)n1CCCO`, the Kd is > 4 mM (inactive).

With `NC(=O)C1CCN(C(=O)c2ccco2)CC1`, the Kd was > 4 mM (inactive).

In the case of `O=c1cc(-c2ccc(O)cc2)oc2cc(O)cc(O)c12`, the Kd was > 4 mM (inactive).

For the compound `O=C1CCC(=O)N1c1cccnc1`, the Kd is > 4 mM (inactive).

On to `NCc1ccc2c(c1)OCCO2`, for which the Kd is > 4 mM (inactive).

As to `Cc1ccc(-c2nc(-c3cccnc3)no2)cc1`, the Kd is > 4 mM (inactive).

As to `COc1ccc(Cl)cc1NC(=O)C(N)=O`, the Kd is > 4 mM (inactive).

Turning to `CNC[C@@H](O)c1ccc(O)c(O)c1`, the Kd was > 4 mM (inactive).

With `NC(=O)c1cccc(N2C(=O)C=CC2=O)c1`, the Kd is > 4 mM (inactive).

On to `O=C(Nc1ccc2c(c1)OCCO2)c1ccncc1`, for which the Kd was > 4 mM (inactive).

Consider `CNC(=O)c1cc(C)c(-c2ccccc2)s1`, for which the Kd was > 4 mM (inactive).

Regarding `O=c1[nH]c(O)c(C=NC2CC2)c(=O)[nH]1`, the Kd was > 4 mM (inactive).

With `Nc1ccc2ncsc2c1`, the Kd is > 4 mM (inactive).

As for `CC(C)c1c(O)ccc2c1CCC1[C@@](C)(C=O)CCC[C@]21C` (stereo not given in full), the Kd is > 4 mM (inactive).

For the compound `CNc1ccccc1C(=O)O`, the Kd was > 4 mM (inactive).

`Cc1cc(C)nc(N2CC(=O)N(C)C2=N)n1`: the Kd is > 4 mM (inactive).

On to `Nc1cccc(S(N)(=O)=O)c1`, for which the Kd is > 4 mM (inactive).

Regarding `CC1(C)CC2C1CC[C@]1(C)CCC3C(C(=O)O)CC(=O)O[C@@]32C1` (stereo not given in full), the Kd is > 4 mM (inactive).

Turning to `COc1ccc(-c2cc(=O)c3c(O)cc(O)c(-c4cc(-c5cc(=O)c6c(O)cc(O)cc6o5)ccc4OC)c3o2)cc1`, the Kd is > 4 mM (inactive).

Regarding `CC[C@@]1(O)C[C@H](O[C@H]2C[C@H](N(C)C)[C@H](O)[C@H](C)O2)c2c(cc3c(c2O)C(=O)c2c(O)cccc2C3=O)[C@H]1C(=O)OC`, the Kd was > 4 mM (inactive).

For `O=C(O)c1csc(-c2cccnc2)n1`, the Kd is > 4 mM (inactive).

As for `CC(=O)N[C@@H](CC(=O)O)C(=O)N[C@@H](CCC(=O)O)C(=O)O` (Ac-Asp-Glu-OH), the Kd is > 4 mM (inactive).

Regarding `Oc1ccccc1N1CCOCC1`, the Kd was > 4 mM (inactive).

Consider `C=C[C@H]1CN2CC[C@H]1C[C@H]2[C@H](O)c1ccnc2ccccc12`, for which the Kd is > 4 mM (inactive).

For `O=C1NC2NC(=O)N(c3ccccc3)C2N1` (stereo not given), the Kd was > 4 mM (inactive).

With `CC(=O)O[C@@H]1CC2C(C)(C)C(=O)C=C[C@]2(C)C2CC[C@@]3(C)[C@H](c4ccoc4)OC(=O)[C@H]4O[C@]43[C@@]21C` (stereo not given in full), the Kd is > 4 mM (inactive).

`Cc1ccc2c(c1)CCCN2C(=O)c1c(C)noc1C`: the Kd is > 4 mM (inactive).

As to `Cc1noc(C)c1C(=O)NCc1cccs1`, the Kd is > 4 mM (inactive).

Take `CC1(C)CN=C(Nc2nc3ccccc3s2)S1`: the Kd is > 4 mM (inactive).

For `Cc1cc(C(=O)N2CCC3(CC2)OCCO3)cs1`, the Kd was > 4 mM (inactive).

As for `O=c1c(O)c(-c2ccccc2)oc2ccccc12`, the Kd was > 4 mM (inactive).

As for `Cc1nc(-c2ccccc2)sc1C(N)=O`, the Kd is > 4 mM (inactive).

Consider `O=C1CSC(=S)N1Cc1cccnc1`, for which the Kd was > 4 mM (inactive).

Regarding `CCCCCCCCCCCCCCCCCCOCC(O)CO` (stereo not given), the Kd was > 4 mM (inactive).

With `Cc1nc2nc(COc3ccccc3)nn2c(C)c1Cl`, the Kd is > 4 mM (inactive).

With `C=CC(=O)N1CC2CC(C1)c1cccc(=O)n1C2` (stereo not given), the Kd was > 4 mM (inactive).

On to `CN1CCn2c1nc(N1CCOCC1)nc2=O`, for which the Kd was > 4 mM (inactive).

As for `O=c1[nH]cc(S(=O)(=O)Nc2ccccc2)c(=O)[nH]1`, the Kd was > 4 mM (inactive).

For `CC(=O)c1c(C)nn(CC(=O)O)c1C`, the Kd is > 4 mM (inactive).

For the compound `Nc1nc(-c2cccnc2)nn1C(=O)Cc1ccccc1`, the Kd is > 4 mM (inactive).

For the compound `Cc1cc2c(nn1)CCc1nonc1-2`, the Kd is > 4 mM (inactive).

In the case of `Cc1cc(C)nc(Nc2n[nH]c(Cc3ccccc3)n2)n1`, the Kd was > 4 mM (inactive).

With `O=C(Nc1ccc2c(c1)OCCO2)c1c(F)cccc1F`, the Kd is > 4 mM (inactive).

Regarding `NCc1c[nH]c2ccccc12`, the Kd is > 4 mM (inactive).

Turning to `COc1cc(-c2coc3cc(OCc4ccccc4)c(OC)c(O)c3c2=O)cc(O)c1OC`, the Kd was > 4 mM (inactive).

As for `c1ccc(SCc2nc(-c3ccncc3)no2)cc1`, the Kd is > 4 mM (inactive).

`Cc1nn(C)c(C)c1NC(=S)NC1CCCC1`: the Kd was > 4 mM (inactive).

In the case of `COc1ccc(NC2=NCC(C)S2)cc1` (stereo not given), the Kd was > 4 mM (inactive).

For `COc1ccc(C)cc1S(=O)(=O)N1CCCCC1`, the Kd is > 4 mM (inactive).

With `Cc1cc(C)n(CCCC(=O)O)n1`, the Kd was > 4 mM (inactive).

For the compound `O=C(Oc1ccc2c(c1)OCC2=O)c1ccccc1`, the Kd was > 4 mM (inactive).

For the compound `O=C1NC(=O)C(C(=S)Nc2ccccc2)C(=O)N1`, the Kd was > 4 mM (inactive).

`CC(=O)Oc1ccc2c(c1C(C)C)CCC1C(C)(C)CCC[C@]21C` (stereo not given in full): the Kd is > 4 mM (inactive).

`CC(=O)Nc1ccc(-c2cn3ccsc3n2)cc1`: the Kd was > 4 mM (inactive).

As for `Cn1c(=O)c2cn3ncccc3c2n(C)c1=O`, the Kd is > 4 mM (inactive).

As for `COC(=O)CSc1nc(N)cc(=O)[nH]1`, the Kd was > 4 mM (inactive).

Take `O=C1CCC(C(=O)NCc2cccnc2)N1` (stereo not given): the Kd is > 4 mM (inactive).

On to `Cc1cc(C)c2ccc[n+]([O-])c2c1O`, for which the Kd is > 4 mM (inactive).

For the compound `NC(=O)Cn1cnc(-c2ccc(F)cc2)c1`, the Kd is > 4 mM (inactive).

For the compound `Cc1ncc(C[n+]2csc3ccccc32)c(N)n1`, the Kd is > 4 mM (inactive).

Consider `Cc1cc(C(=O)Nc2sc3c(c2C#N)CCC3)no1`, for which the Kd is > 4 mM (inactive).

For `CC1(C)CC[C@]2(C)CC[C@]3(C)C(=CCC4[C@@]5(C)CC[C@H](O)C(C)(C)C5CC[C@]43C)C2C1` (stereo not given in full), the Kd is > 4 mM (inactive).

As to `COc1ccc(C2(CN)CCOCC2)cc1OC`, the Kd is > 4 mM (inactive).

Turning to `COC(=O)c1c[nH]c2ccccc12`, the Kd was > 4 mM (inactive).

Turning to `NC(=O)c1ccc(NC(=O)c2ccco2)cc1`, the Kd is > 4 mM (inactive).

`O=C(O)c1ccc(-n2cccc2)cc1`: the Kd was > 4 mM (inactive).

For `Nc1ccc2[nH]ncc2c1`, the Kd is > 4 mM (inactive).

Regarding `CC(C)C(=O)NCC(c1ccco1)N1CCOCC1` (stereo not given), the Kd is > 4 mM (inactive).

For the compound `Cc1cccnc1NC1=NCC(C)S1` (stereo not given), the Kd was > 4 mM (inactive).

For `CCOC(=O)c1[nH]cnc1C(=O)OC(C)C`, the Kd was > 4 mM (inactive).

With `C/C=C(\C)C(=O)O[C@@H]1c2c(ccc3ccc(=O)oc23)OC(C)(C)[C@@H]1OC(C)=O`, the Kd is > 4 mM (inactive).

On to `O=C1c2cccnc2C(=O)N1Cc1ccc2c(c1)OCO2`, for which the Kd was > 4 mM (inactive).

Turning to `NC(=O)CSCc1ccc(Br)cc1`, the Kd is > 4 mM (inactive).
